Legend:
Format in all cases: in vivo
[1] = test system: barnyardgrass (Echinochloa crus-galli); test: Test G Pre-Emergence Protocol; conditions: Echinochloa crus-galli, pre-emergence, 312 h, evaluated after 13 days; for pest or weed control at 15.625 g/ha: 15.625 g ai/ha; for pest or weed control at 15.625 g/ha / pest or weed control at 250 g/ha: read-out: Barnyardgrass damage rating (100=total damage to plant; 0=no damage to plant); for pest or weed control at 62.5 g/ha: 62.5 g ai/ha, 100=total damage to plant, 0=no damage to plant, read-out: Barnyardgrass damage rating; for pest or weed control at 250 g/ha: 250 g ai/ha
Method in brief: (§1)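 Glasshouse pre-emergence test: soil-sown seeds, sprayed after 1 d at 15.625, 62.5 or 250 g/ha. Conditions 24/16° C day/night, 14 h light, 65% humidity, watering twice daily. Rating 13 d post-spray (100 = total damage).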

[2] = test system: ivy-leaved morning glory (Ipomoea hederacea); test: Test G Pre-Emergence Protocol; conditions: Ipomoea, pre-emergence, 312 h, evaluated after 13 days; for pest or weed control at 15.625 g/ha: 15.625 g ai/ha; for pest or weed control at 15.625 g/ha / pest or weed control at 250 g/ha: read-out: Morningglory, Ivy-leaved damage rating (100=total damage to plant; 0=no damage to plant); for pest or weed control at 62.5 g/ha: 62.5 g ai/ha, 100=total damage to plant, 0=no damage to plant, read-out: Morningglory, Ivy-leaved damage rating; for pest or weed control at 250 g/ha: 250 g ai/ha
Method in brief: as §1

[3] = test system: redroot pigweed (Amaranthus retroflexus); test: Test G Pre-Emergence Protocol; conditions: Amaranthus retroflexus, pre-emergence, 312 h, evaluated after 13 days; for pest or weed control at 15.625 g/ha: 15.625 g ai/ha; for pest or weed control at 15.625 g/ha / pest or weed control at 250 g/ha: read-out: Pigweed, Redroot damage rating (100=total damage to plant; 0=no damage to plant); for pest or weed control at 62.5 g/ha: 62.5 g ai/ha, 100=total damage to plant, 0=no damage to plant, read-out: Pigweed, Redroot damage rating; for pest or weed control at 250 g/ha: 250 g ai/ha
Method in brief: as §1

[4] = test system: giant foxtail (Setaria faberi); test: Test G Pre-Emergence Protocol; conditions: Setaria faberi, pre-emergence, 312 h, evaluated after 13 days; for pest or weed control at 15.625 g/ha: 15.625 g ai/ha; for pest or weed control at 15.625 g/ha / pest or weed control at 250 g/ha: read-out: Foxtail, Giant damage rating (100=total damage to plant; 0=no damage to plant); for pest or weed control at 62.5 g/ha: 62.5 g ai/ha, 100=total damage to plant, 0=no damage to plant, read-out: Foxtail, Giant damage rating; for pest or weed control at 250 g/ha: 250 g ai/ha
Method in brief: as §1

[5] = test system: velvetleaf (Abutilon theophrasti); test: Test G Pre-Emergence Protocol; conditions: Abutilon theophrasti, pre-emergence, 312 h, evaluated after 13 days; for pest or weed control at 15.625 g/ha: 15.625 g ai/ha; for pest or weed control at 15.625 g/ha / pest or weed control at 250 g/ha: read-out: Velvetleaf damage rating (100=total damage to plant; 0=no damage to plant); for pest or weed control at 62.5 g/ha: 62.5 g ai/ha, 100=total damage to plant, 0=no damage to plant, read-out: Velvetleaf damage rating; for pest or weed control at 250 g/ha: 250 g ai/ha
Method in brief: as §1

corn (Zea mays) [6] = test: Test G Pre-Emergence Protocol; conditions: Zea mays, pre-emergence, 312 h, evaluated after 13 days; for plant injury at 15.625 g/ha: 15.625 g ai/ha; for plant injury at 15.625 g/ha / plant injury at 250 g/ha: read-out: Corn damage rating (100=total damage to plant; 0=no damage to plant); for plant injury at 62.5 g/ha: 62.5 g ai/ha, 100=total damage to plant, 0=no damage to plant, read-out: Corn damage rating; for plant injury at 250 g/ha: 250 g ai/ha
Method in brief: as §1

[7] = test system: barnyardgrass (Echinochloa crus-galli); test: Test G Post-Emergence Protocol; conditions: Echinochloa crus-galli, post-emergence, 312 h, read-out: Barnyardgrass damage rating; for pest or weed control at 15.625 g/ha: 15.625 g ai/ha, evaluated after 13 days (100=total damage to plant; 0=no damage to plant); for pest or weed control at 62.5 g/ha: 62.5 g ai/ha; for pest or weed control at 62.5 g/ha / pest or weed control at 250 g/ha: evaluated after 13 days, 100=total damage to plant, 0=no damage to plant; for pest or weed control at 250 g/ha: 250 g ai/ha
Method in brief: (§2)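 Scores run 0 (no damage) to 100 (total damage) and were taken 13 days after spraying. Plants had been raised in pots for 8 days under glasshouse control (24/16 °C, 14 h photoperiod, 65% humidity) and then treated at 15.625, 62.5 or 250 g/ha.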

[8] = test system: ivy-leaved morning glory (Ipomoea hederacea); test: Test G Post-Emergence Protocol; conditions: Ipomoea, post-emergence, 312 h, read-out: Morningglory, Ivy-leaved damage rating; for pest or weed control at 15.625 g/ha: 15.625 g ai/ha, evaluated after 13 days (100=total damage to plant; 0=no damage to plant); for pest or weed control at 62.5 g/ha: 62.5 g ai/ha; for pest or weed control at 62.5 g/ha / pest or weed control at 250 g/ha: evaluated after 13 days, 100=total damage to plant, 0=no damage to plant; for pest or weed control at 250 g/ha: 250 g ai/ha
Method in brief: as §2

[9] = test system: redroot pigweed (Amaranthus retroflexus); test: Test G Post-Emergence Protocol; conditions: Amaranthus retroflexus, post-emergence, 312 h, read-out: Pigweed, Redroot damage rating; for pest or weed control at 15.625 g/ha: 15.625 g ai/ha, evaluated after 13 days (100=total damage to plant; 0=no damage to plant); for pest or weed control at 62.5 g/ha: 62.5 g ai/ha; for pest or weed control at 62.5 g/ha / pest or weed control at 250 g/ha: evaluated after 13 days, 100=total damage to plant, 0=no damage to plant; for pest or weed control at 250 g/ha: 250 g ai/ha
Method in brief: as §2

[10] = test system: giant foxtail (Setaria faberi); test: Test G Post-Emergence Protocol; conditions: Setaria faberi, post-emergence, 312 h, read-out: Foxtail, Giant damage rating; for pest or weed control at 15.625 g/ha: 15.625 g ai/ha, evaluated after 13 days (100=total damage to plant; 0=no damage to plant); for pest or weed control at 62.5 g/ha: 62.5 g ai/ha; for pest or weed control at 62.5 g/ha / pest or weed control at 250 g/ha: evaluated after 13 days, 100=total damage to plant, 0=no damage to plant; for pest or weed control at 250 g/ha: 250 g ai/ha
Method in brief: as §2

[11] = test system: velvetleaf (Abutilon theophrasti); test: Test G Post-Emergence Protocol; conditions: Abutilon theophrasti, post-emergence, 312 h, read-out: Velvetleaf damage rating; for pest or weed control at 15.625 g/ha: 15.625 g ai/ha, evaluated after 13 days (100=total damage to plant; 0=no damage to plant); for pest or weed control at 62.5 g/ha: 62.5 g ai/ha; for pest or weed control at 62.5 g/ha / pest or weed control at 250 g/ha: evaluated after 13 days, 100=total damage to plant, 0=no damage to plant; for pest or weed control at 250 g/ha: 250 g ai/ha
Method in brief: as §2

corn (Zea mays) [12] = test: Test G Post-Emergence Protocol; conditions: Zea mays, post-emergence, 312 h, read-out: Corn damage rating; for plant injury at 15.625 g/ha: 15.625 g ai/ha, evaluated after 13 days (100=total damage to plant; 0=no damage to plant); for plant injury at 62.5 g/ha: 62.5 g ai/ha; for plant injury at 62.5 g/ha / plant injury at 250 g/ha: evaluated after 13 days, 100=total damage to plant, 0=no damage to plant; for plant injury at 250 g/ha: 250 g ai/ha
Method in brief: as §2

Compound | pest or weed control at 15.625 g/ha [1] [%] | pest or weed control at 62.5 g/ha [1] [%] | pest or weed control at 250 g/ha [1] [%] | pest or weed control at 15.625 g/ha [2] [%] | pest or weed control at 62.5 g/ha [2] [%] | pest or weed control at 250 g/ha [2] [%] | pest or weed control at 15.625 g/ha [3] [%] | pest or weed control at 62.5 g/ha [3] [%] | pest or weed control at 250 g/ha [3] [%] | pest or weed control at 15.625 g/ha [4] [%] | pest or weed control at 62.5 g/ha [4] [%] | pest or weed control at 250 g/ha [4] [%] | pest or weed control at 15.625 g/ha [5] [%] | pest or weed control at 62.5 g/ha [5] [%] | pest or weed control at 250 g/ha [5] [%] | plant injury at 15.625 g/ha (corn (Zea mays) [6]) [%] | plant injury at 62.5 g/ha (corn (Zea mays) [6]) [%] | plant injury at 250 g/ha (corn (Zea mays) [6]) [%] | pest or weed control at 15.625 g/ha [7] [%] | pest or weed control at 62.5 g/ha [7] [%] | further results
Cc1cc(C2CN(C)C(=O)C2C(=O)Nc2cccc(F)c2F)cc(C)c1F (stereo not drawn) [Compound 1712] | 60 | 80 | 90 | 0 | 0 | 20 | 10 | 0 | 10 | 80 | 90 | 90 | 0 | 0 | 20 | 0 | 10 | 70 | 50 | 80 | pest or weed control at 250 g/ha [7]: 90%; pest or weed control at 15.625 g/ha [8]: 10%; pest or weed control at 62.5 g/ha [8]: 30%; pest or weed control at 250 g/ha [8]: 70%; pest or weed control at 15.625 g/ha [9]: 0%; pest or weed control at 62.5 g/ha [9]: 20%; pest or weed control at 250 g/ha [9]: 20%; pest or weed control at 15.625 g/ha [10]: 80%; pest or weed control at 62.5 g/ha [10]: 80%; pest or weed control at 250 g/ha [10]: 80%; pest or weed control at 15.625 g/ha [11]: 10%; pest or weed control at 62.5 g/ha [11]: 10%; pest or weed control at 250 g/ha [11]: 40%; plant injury at 15.625 g/ha (corn (Zea mays) [12]): 40%; plant injury at 62.5 g/ha (corn (Zea mays) [12]): 70%; plant injury at 250 g/ha (corn (Zea mays) [12]): 70%
CN1C[C@H](c2ccc(C#N)c(C(F)(F)F)c2)[C@@H](C(=O)Nc2ccccc2S(C)(=O)=O)C1=O (racemic) [Compound 1796] | 0 | 0 | 0 | 0 | 0 | 0 | 0 | 0 | 20 | 0 | 0 | 0 | 0 | 0 | 10 | 0 | 0 | 0 | 0 | 0 | pest or weed control at 250 g/ha [7]: 0%; pest or weed control at 15.625 g/ha [8]: 0%; pest or weed control at 62.5 g/ha [8]: 10%; pest or weed control at 250 g/ha [8]: 10%; pest or weed control at 15.625 g/ha [9]: 0%; pest or weed control at 62.5 g/ha [9]: 10%; pest or weed control at 250 g/ha [9]: 20%; pest or weed control at 15.625 g/ha [10]: 0%; pest or weed control at 62.5 g/ha [10]: 0%; pest or weed control at 250 g/ha [10]: 0%; pest or weed control at 15.625 g/ha [11]: 0%; pest or weed control at 62.5 g/ha [11]: 0%; pest or weed control at 250 g/ha [11]: 0%; plant injury at 15.625 g/ha (corn (Zea mays) [12]): 0%; plant injury at 62.5 g/ha (corn (Zea mays) [12]): 0%; plant injury at 250 g/ha (corn (Zea mays) [12]): 0%
